Our source for the inhibition and toxicity values is patent US10857119B2, “Composition containing monoacetyldiacylglycerol compound as active ingredient for inhibiting blood cancer or metastasis” (ENZYCHEM LIFESCIENCES CORPORATION, priority 2013, dated 2020).

The subject of one data set is rat IL-4. The data set is described as follows: IL-4 secretion by ELISA in RBL-2H3 cells. It counts as cell-based. Particulars: 10 μg/Ml EC-18. The method, then: The cells were treated with 0.1 μg/Ml to 10 μg/Ml EC-18 for 1 hour and antigen was processed. After the incubation for 18 hours at 37° C., the cell was removed to obtain a supernatant. The quantification of rat IL-4 which was present in the cell culture medium of RBL-2H3 cells was made by carrying out enzyme-linked immunosorbent assay (ELISA) according to the protocol indicated by the manufacturer using commercially purchasable monoclonal antibody (mAb) (BD Biosciences).

For data set [1] the following is noted: GLP toxicity test; cited from earlier work.

Each structure is given as a SMILES string.

As to `CCCCC/C=C\C/C=C\CCCCCCCC(=O)OC(COC(C)=O)COC(=O)CCCCCCCCCCCCCCC` (centres unmarked) [EC-18, 1-palmitoyl-2-linoleoyl-3-acetylglycerol], the inhibition at 10 µg/mL with rat IL-4 was at least 60%. For the same compound, the toxicity entry in data set [1] is “no-toxicity”.
